# ChEMBL document CHEMBL5620376, “Design, synthesis and anti-NASH effect evaluation of novel GFT505 derivatives in vitro and in vivo” (Eur J Med Chem, 2023)
# Calls of active or inactive are those of the source. The rule behind the calls is not given here.
# What was measured:
# HepG2 [1] = assay: Cytotoxicity against human HepG2 cells assessed as inhibition of cell proliferation at 20 to 80 micromol/L incubated for 24 hrs by MTT assay; assay type: functional, cell-based; conditions: dose 20-80 µmol/L
# HepG2 [2] = assay: Anti-NASH activity in free fatty acid-induced nonalcoholic steatohepatitis model in human HepG2 cells assessed as reduction in intracellular triglyceride level measured per mg of protein at 40 micromol/L incubated for 24 hrs; assay type: functional, cell-based; conditions: dose 40.0 µmol/L
# HepG2 [3] = assay: Anti-NASH activity in free fatty acid-induced nonalcoholic steatohepatitis model in human HepG2 cells assessed as reduction in intracellular lipid accumulation at 40 micromol/L incubated for 24 hrs by Oil Red O/ Hematoxylin staining based analysis; assay type: functional, cell-based; conditions: dose 40.0 µmol/L
# Mus musculus [4] = assay: Anti-NASH activity in MCD diet-induced nonalcoholic steatohepatitis C57BL/6 mouse assessed as reduction in triglyceride level in serum at 3 mg/kg,po administrated […]; assay type: functional
# Mus musculus [5] = assay: Anti-NASH activity in MCD diet-induced nonalcoholic steatohepatitis C57BL/6 mouse assessed as reduction in total cholesterol level in serum at 3 to 30 mg/kg,po administrated for 28 days; assay type: functional, organism-based; conditions: dose 3-30 mg/kg, time 28.0 day
# [6] = Hepatotoxicity in MCD diet-induced C57BL/6 mouse assessed as reduction in liver index at 3 to 30 mg/kg,po administrated for 4 weeks by hematoxylin and eosin staining based microscopic analysis; assay type: toxicity, organism-based; conditions: in vivo, 672 h, dose 3-30 mg/kg
# Mus musculus [7] = assay: Anti-NASH activity in MCD diet-induced nonalcoholic steatohepatitis C57BL/6 mouse assessed as decrease in serum IL-8 level at 3 to 30 mg/kg,po administrated for 28 days; assay type: functional, organism-based; conditions: dose 3-30 mg/kg, time 28.0 day
# Mus musculus [8] = assay: Anti-NASH activity in MCD diet-induced nonalcoholic steatohepatitis C57BL/6 mouse assessed as reduction in triglyceride level in serum at 30 mg/kg,po administrated for 28 days; assay type: functional; conditions: time 28 day
# Mus musculus [9] = assay: Anti-NASH activity in MCD diet-induced nonalcoholic steatohepatitis C57BL/6 mouse assessed as reduction in triglyceride level in serum at 10 mg/kg,po administrated for 28 days; assay type: functional; conditions: time 28 day
# Mus musculus [10] = assay: Anti-NASH activity in MCD diet-induced nonalcoholic steatohepatitis C57BL/6 mouse assessed as decrease in serum ALT activity at 10 mg/kg,po administrated for 28 days; assay type: functional, organism-based; conditions: time 28.0 day
# Mus musculus [11] = assay: Anti-NASH activity in MCD diet-induced nonalcoholic steatohepatitis C57BL/6 mouse assessed as decrease in serum ALT activity at 30 mg/kg,po administrated for 28 days; assay type: functional, organism-based; conditions: time 28.0 day
# Mus musculus [12] = assay: Anti-NASH activity in MCD diet-induced nonalcoholic steatohepatitis C57BL/6 mouse assessed as decrease in serum LDL level at 3 to 30 mg/kg,po administrated for 28 days; assay type: functional, organism-based; conditions: dose 3-30 mg/kg, time 28.0 day
# Mus musculus [13] = assay: Anti-NASH activity in MCD diet-induced nonalcoholic steatohepatitis C57BL/6 mouse assessed as decrease in serum TNF-alpha level at 3 to 30 mg/kg,po administrated for 28 days; assay type: functional, organism-based; conditions: dose 3-30 mg/kg, time 28.0 day
# Mus musculus [14] = assay: Anti-NASH activity in MCD diet-induced nonalcoholic steatohepatitis C57BL/6 mouse assessed as decrease in serum IL-6 level at 3 to 30 mg/kg,po administrated for 28 days; assay type: functional, organism-based; conditions: dose 3-30 mg/kg, time 28.0 day
# Mus musculus [15] = assay: Anti-NASH activity in MCD diet-induced nonalcoholic steatohepatitis C57BL/6 mouse assessed as increase in serum HDL level at 3 to 30 mg/kg,po administrated for 28 days; assay type: functional, organism-based; conditions: dose 3-30 mg/kg, time 28.0 day
# Mus musculus [16] = assay: Anti-NASH activity in MCD diet-induced nonalcoholic steatohepatitis C57BL/6 mouse assessed as reduction in triglyceride level in serum at 3 mg/kg,po administrated for 28 days; assay type: functional, organism-based; conditions: time 28.0 day
# Mus musculus [17] = assay: Anti-NASH activity in MCD diet-induced nonalcoholic steatohepatitis C57BL/6 mouse assessed as increase in liver GSH level at 3 to 30 mg/kg,po administrated for 28 days; assay type: functional, organism-based; conditions: dose 3-30 mg/kg, time 28.0 day
# Mus musculus [18] = assay: Anti-NASH activity in MCD diet-induced nonalcoholic steatohepatitis C57BL/6 mouse assessed as decrease in serum AST activity at 3 to 30 mg/kg,po administrated for 28 days; assay type: functional, organism-based; conditions: dose 3-30 mg/kg, time 28.0 day
# HepG2 [19] = assay: Anti-NASH activity in free fatty acid-induced nonalcoholic steatohepatitis model in human HepG2 cells assessed as reduction in AST activity at 40 micromol/L incubated for 24 hrs; assay type: functional; conditions: dose 40 µmol/L
# Mus musculus [20] = assay: Anti-NASH activity in MCD diet-induced nonalcoholic steatohepatitis C57BL/6 mouse assessed as reduction in triglyceride level in serum at 3 to 30 mg/kg,po administrated for 28 days; assay type: functional, organism-based; conditions: dose 3-30 mg/kg, time 28.0 day
# Mus musculus [21] = assay: Anti-NASH activity in MCD diet-induced nonalcoholic steatohepatitis C57BL/6 mouse assessed as increase in liver GSH level at 30 mg/kg,po administrated for 28 days; assay type: functional; conditions: time 28 day
# Mus musculus [22] = assay: Anti-NASH activity in MCD diet-induced nonalcoholic steatohepatitis C57BL/6 mouse assessed as decrease in serum ALT activity at 100 mg/kg,po administrated for 28 days; assay type: functional, organism-based; conditions: time 28.0 day
# Mus musculus [23] = assay: Anti-NASH activity in MCD diet-induced nonalcoholic steatohepatitis C57BL/6 mouse assessed as decrease in serum TNF-alpha level at 100 mg/kg,po administrated for 28 days; assay type: functional, organism-based; conditions: time 28.0 day
# Mus musculus [24] = assay: Anti-NASH activity in MCD diet-induced nonalcoholic steatohepatitis C57BL/6 mouse assessed as increase in liver GSH level at 100 mg/kg,po administrated for 28 days; assay type: functional, organism-based; conditions: time 28.0 day
# Mus musculus [25] = assay: Anti-NASH activity in MCD diet-induced nonalcoholic steatohepatitis C57BL/6 mouse assessed as decrease in serum AST activity at 100 mg/kg,po administrated for 28 days; assay type: functional, organism-based; conditions: time 28.0 day
# Mus musculus [26] = assay: Anti-NASH activity in MCD diet-induced nonalcoholic steatohepatitis C57BL/6 mouse assessed as reduction in triglyceride level in serum at 100 mg/kg,po administrated for 28 days; assay type: functional, organism-based; conditions: time 28.0 day
# HepG2 [27] = assay: Anti-NASH activity in free fatty acid-induced nonalcoholic steatohepatitis model in human HepG2 cells assessed as reduction in AST activity at 100 micromol/L incubated for 24 hrs; assay type: functional; conditions: dose 100 µmol/L
# Mus musculus [28] = assay: Anti-NASH activity in MCD diet-induced nonalcoholic steatohepatitis C57BL/6 mouse assessed as increase in serum HDL level at 100 mg/kg,po administrated for 28 days; assay type: functional, organism-based; conditions: time 28.0 day
# HepG2 [29] = assay: Anti-NASH activity in free fatty acid-induced nonalcoholic steatohepatitis model in human HepG2 cells assessed as reduction in intracellular triglyceride level measured per mg of protein at 100 micromol/L incubated for 24 hrs; assay type: functional; conditions: dose 100 µmol/L
# [30] = Hepatotoxicity in MCD diet-induced C57BL/6 mouse assessed as reduction in liver index at 100 mg/kg,po administrated for 4 weeks by hematoxylin and eosin staining based microscopic analysis; assay type: toxicity, organism-based; conditions: in vivo, 672 h
# Mus musculus [31] = assay: Anti-NASH activity in MCD diet-induced nonalcoholic steatohepatitis C57BL/6 mouse assessed as decrease in serum LDL level at 100 mg/kg,po administrated for 28 days; assay type: functional, organism-based; conditions: time 28.0 day
# HepG2 [32] = assay: Anti-NASH activity in free fatty acid-induced nonalcoholic steatohepatitis model in human HepG2 cells assessed as reduction in intracellular lipid accumulation at 100 micromol/L incubated for 24 hrs by Oil Red O/ Hematoxylin staining based analysis; assay type: functional, cell-based; conditions: dose 100.0 µmol/L
# Mus musculus [33] = assay: Anti-NASH activity in MCD diet-induced nonalcoholic steatohepatitis C57BL/6 mouse assessed as decrease in serum IL-6 level at 100 mg/kg,po administrated for 28 days; assay type: functional, organism-based; conditions: time 28.0 day
smiles,measurement,setting,value
Cc1cc(/C=C/C(=O)c2ccc(N(C)Cc3ccccc3)cc2)cc(C)c1OC(C)(C)C(=O)O,Activity,HepG2 [1],inactive
same,Activity,HepG2 [2],Active
same,Activity,HepG2 [3],Active
C[Se]c1ccc(C(=O)/C=C/c2cc(C)c(OC(C)(C)C(=O)O)c(C)c2)cc1,Activity,HepG2 [1],Active
same,Activity,HepG2 [2],Active
same,Activity,HepG2 [3],Active
CSc1ccc(C(=O)/C=C/c2cc(C)c(OC(C)(C)C(=O)OC(C)(C)C)c(C)c2)cc1,Activity,HepG2 [1],inactive
same,Activity,HepG2 [2],Active
same,Activity,HepG2 [3],Active
COc1ccc(C(=O)/C=C/c2cc(C)c(OC(C)(C)C(=O)O)c(C)c2)cc1,Activity,HepG2 [1],Active
same,Activity,HepG2 [2],Active
same,Activity,HepG2 [3],Active
C[Se]c1ccc(C(=O)/C=C/c2cc(C)c(OC(C)(C)C(=O)OC(C)(C)C)c(C)c2)cc1,Activity,HepG2 [1],inactive
same,Activity,HepG2 [2],Active
same,Activity,HepG2 [3],Active
CNc1ccc(C(=O)/C=C/c2cc(C)c(OC(C)(C)C(=O)O)c(C)c2)cc1,Activity,HepG2 [1],inactive
same,Activity,HepG2 [2],inactive
same,Activity,HepG2 [3],inactive
CSc1ccc(C(=O)/C=C/c2cc(C)c(OC(C)(C)C(=O)O)c(C)c2)cc1 [ELAFIBRANOR],Activity,Mus musculus [4],0.64 mmol/L
same,Activity,Mus musculus [5],Active
same,Activity,HepG2 [1],Active
same,Activity,[6],Toxic
same,Activity,Mus musculus [7],Active
same,Activity,Mus musculus [8],0.53 mmol/L
same,Activity,Mus musculus [9],0.69 mmol/L
same,Activity,Mus musculus [10],Active
same,Activity,Mus musculus [11],Active
same,Activity,Mus musculus [12],Active
same,Activity,HepG2 [2],Active
same,Activity,Mus musculus [13],Active
same,Activity,Mus musculus [14],Active
same,Activity,Mus musculus [15],Active
same,Activity,HepG2 [3],Active
same,Activity,Mus musculus [16],inactive
same,Activity,Mus musculus [17],Active
same,Activity,Mus musculus [18],Active
same,Activity,HepG2 [19],18.31 U/g
CNc1ccc(C(=O)/C=C/c2cc(C)c(OC(C)(C)C(=O)OC(C)(C)C)c(C)c2)cc1,Activity,Mus musculus [5],Active
same,Activity,HepG2 [1],inactive
same,Activity,[6],Non-Toxic
same,Activity,Mus musculus [7],Active
same,Activity,Mus musculus [20],Active
same,Activity,Mus musculus [10],Active
same,Activity,Mus musculus [11],Active
same,Activity,Mus musculus [12],Active
same,Activity,HepG2 [2],Active
same,Activity,Mus musculus [13],Active
same,Activity,Mus musculus [14],Active
same,Activity,Mus musculus [15],Active
same,Activity,Mus musculus [21],47.8 µmol/g
same,Activity,HepG2 [3],Active
same,Activity,Mus musculus [17],Active
same,Activity,Mus musculus [18],Active
same,Activity,HepG2 [19],18.65 U/g
Cc1cc(/C=C/C(=O)c2ccc(N(C)Cc3ccccc3)cc2)cc(C)c1OC(C)(C)C(=O)OC(C)(C)C,Activity,HepG2 [1],inactive
same,Activity,HepG2 [2],Active
same,Activity,HepG2 [3],Active
COc1ccc(C(=O)/C=C/c2cc(C)c(OC(C)(C)C(=O)OC(C)(C)C)c(C)c2)cc1,Activity,HepG2 [1],inactive
same,Activity,HepG2 [2],Active
same,Activity,HepG2 [3],Active
Cc1cc(/C=C/C(=O)c2ccc(N(C)C)cc2)cc(C)c1OC(C)(C)C(=O)OC(C)(C)C,Activity,HepG2 [1],inactive
same,Activity,HepG2 [2],inactive
same,Activity,HepG2 [3],inactive
CC(C)OC(=O)C(C)(C)Oc1ccc(C(=O)c2ccc(Cl)cc2)cc1 [FENOFIBRATE],Activity,Mus musculus [22],Active
same,Activity,Mus musculus [23],Active
same,Activity,Mus musculus [24],Active
same,Activity,Mus musculus [25],Active
same,Activity,Mus musculus [26],Active
same,Activity,HepG2 [27],19.78 U/g
same,Activity,Mus musculus [28],Active
same,Activity,HepG2 [29],0.15 mmol
same,Activity,[30],Toxic
same,Activity,Mus musculus [31],Active
same,Activity,HepG2 [32],Active
same,Activity,Mus musculus [33],Active
Cc1cc(/C=C/C(=O)c2ccc(N(C)C)cc2)cc(C)c1OC(C)(C)C(=O)O,Activity,HepG2 [1],inactive
same,Activity,HepG2 [2],Active
same,Activity,HepG2 [3],Active
